± gives the expanded uncertainty stated by the source.
Settings: Liquid, Ebulliometric method (Recirculating still)

CC(=O)CC(C)C [4-methylpentan-2-one]
vapor or sublimation pressure (389.15 K): 101.3 ± 3 kPa

CC(=O)N(C)C [N,N-dimethylethanamide]
vapor or sublimation pressure (439.15 K): 101.3 ± 3 kPa

CCCCO [butan-1-ol]
vapor or sublimation pressure (390.75 K): 101.3 ± 3 kPa

From the NIST ThermoML archive (doi:10.1021/acs.jced.9b00535)
